From PubChem BioAssay (NCI)
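GI50 = concentration required for 50% inhibition of growth. Definition used: TGI = concentration required for complete inhibition of growth.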

Key:
Assay in all cases: NCI anticancer screen, dose series, 384-well format
DU-145 prostate = test system: DU-145 prostate
HL-60(TB) leukemia = test system: HL-60(TB) leukemia
HCC-2998 colon = test system: HCC-2998 colon
NCI/ADR-RES ovarian = test system: NCI/ADR-RES ovarian
IGROV1 ovarian = test system: IGROV1 ovarian
HT29 colon = test system: HT29 colon
A498 renal = test system: A498 renal
NCI-H460 NSCLC = test system: NCI-H460 NSCLC
TK-10 renal = test system: TK-10 renal
SF-295 CNS = test system: SF-295 CNS
KM12 colon = test system: KM12 colon
HOP-92 NSCLC = test system: HOP-92 NSCLC
RPMI-8226 leukemia = test system: RPMI-8226 leukemia
SW-620 colon = test system: SW-620 colon
MALME-3M melanoma = test system: MALME-3M melanoma
ACHN renal = test system: ACHN renal
UACC-257 melanoma = test system: UACC-257 melanoma
CCRF-CEM leukemia = test system: CCRF-CEM leukemia
SF-539 CNS = test system: SF-539 CNS
SR leukemia = test system: SR leukemia
MDA-MB-435 melanoma = test system: MDA-MB-435 melanoma
PC-3 prostate = test system: PC-3 prostate
CAKI-1 renal = test system: CAKI-1 renal
HCT-116 colon = test system: HCT-116 colon
SNB-19 CNS = test system: SNB-19 CNS
T-47D breast = test system: T-47D breast
SK-MEL-5 melanoma = test system: SK-MEL-5 melanoma
SK-OV-3 ovarian = test system: SK-OV-3 ovarian
SNB-75 CNS = test system: SNB-75 CNS
EKVX NSCLC = test system: EKVX NSCLC
UACC-62 melanoma = test system: UACC-62 melanoma
MDA-MB-231 breast = test system: MDA-MB-231 breast
U251 glioblastoma = test system: U251 glioblastoma
BT-549 breast = test system: BT-549 breast
M14 melanoma = test system: M14 melanoma
NCI-H23 lung = test system: NCI-H23 lung
786-0 renal = test system: 786-0 renal
K-562 leukemia = test system: K-562 leukemia
OVCAR-5 ovarian = test system: OVCAR-5 ovarian
OVCAR-3 ovarian = test system: OVCAR-3 ovarian
NCI-H522 lung = test system: NCI-H522 lung
SK-MEL-28 melanoma = test system: SK-MEL-28 melanoma
MOLT-4 leukemia = test system: MOLT-4 leukemia
SF-268 CNS = test system: SF-268 CNS
HS 578T breast = test system: HS 578T breast
MCF7 breast = test system: MCF7 breast
UO-31 renal = test system: UO-31 renal
NCI-H226 lung = test system: NCI-H226 lung
OVCAR-4 ovarian = test system: OVCAR-4 ovarian
SK-MEL-2 melanoma = test system: SK-MEL-2 melanoma
A549 NSCLC = test system: A549 NSCLC
RXF 393 renal = test system: RXF 393 renal
SN12C renal = test system: SN12C renal
COLO 205 colon = test system: COLO 205 colon
HCT-15 colon = test system: HCT-15 colon
LOX IMVI melanoma = test system: LOX IMVI melanoma
NCI-H322M lung = test system: NCI-H322M lung
MDA-MB-468 breast = test system: MDA-MB-468 breast
HOP-62 NSCLC = test system: HOP-62 NSCLC

**Q.** Which results are given for `Cc1cc(Nc2cc(N3CCN(C)CC3)nc(C#Cc3ccccc3)n2)n[nH]1`?
**A.** GI50 (DU-145 prostate): 4.04 µM; TGI (DU-145 prostate): 17.4 µM; GI50 (HL-60(TB) leukemia): 2.12 µM; TGI (HL-60(TB) leukemia): 5.14 µM; GI50 (HCC-2998 colon): 0.348 µM; TGI (HCC-2998 colon): 6.72 µM; GI50 (NCI/ADR-RES ovarian): 9.92 µM; TGI (NCI/ADR-RES ovarian): 22 µM; GI50 (IGROV1 ovarian): 0.607 µM; TGI (IGROV1 ovarian): 3.28 µM; GI50 (HT29 colon): 3.95 µM; TGI (HT29 colon): 14.8 µM; GI50 (A498 renal): 1.66 µM; TGI (A498 renal): 11 µM; GI50 (NCI-H460 NSCLC): 2.42 µM; TGI (NCI-H460 NSCLC): 12.1 µM; GI50 (TK-10 renal): 2.48 µM; TGI (TK-10 renal): 15.2 µM; GI50 (SF-295 CNS): 2.95 µM; TGI (SF-295 CNS): 13 µM; GI50 (KM12 colon): 0.334 µM; TGI (KM12 colon): 10.4 µM; GI50 (HOP-92 NSCLC): 2.23 µM; TGI (HOP-92 NSCLC): 8.85 µM; GI50 (RPMI-8226 leukemia): 3.24 µM; TGI (RPMI-8226 leukemia): 13.4 µM; GI50 (SW-620 colon): 3.42 µM; TGI (SW-620 colon): 12.5 µM; GI50 (MALME-3M melanoma): 2.57 µM; TGI (MALME-3M melanoma): 11.8 µM; GI50 (ACHN renal): 1.23 µM; TGI (ACHN renal): 7.68 µM; GI50 (UACC-257 melanoma): 3.77 µM; TGI (UACC-257 melanoma): 14.3 µM; GI50 (CCRF-CEM leukemia): 2.19 µM; TGI (CCRF-CEM leukemia): 7.01 µM; GI50 (SF-539 CNS): 3.62 µM; TGI (SF-539 CNS): 15.9 µM; GI50 (SR leukemia): 1.36 µM; TGI (SR leukemia): 2.75 µM; GI50 (MDA-MB-435 melanoma): 3.18 µM; TGI (MDA-MB-435 melanoma): 12.6 µM; GI50 (PC-3 prostate): 3.09 µM; TGI (PC-3 prostate): 13.9 µM; GI50 (CAKI-1 renal): 1.6 µM; TGI (CAKI-1 renal): 7.03 µM; GI50 (HCT-116 colon): 2.94 µM; TGI (HCT-116 colon): 11.9 µM; GI50 (SNB-19 CNS): 6.17 µM; TGI (SNB-19 CNS): 19.3 µM; GI50 (T-47D breast): 9.61 µM; TGI (T-47D breast): 21.4 µM; GI50 (SK-MEL-5 melanoma): 2.49 µM; TGI (SK-MEL-5 melanoma): 12.9 µM; GI50 (SK-OV-3 ovarian): 1.04 µM; TGI (SK-OV-3 ovarian): 4.36 µM; GI50 (SNB-75 CNS): 1.73 µM; TGI (SNB-75 CNS): 4.35 µM; GI50 (EKVX NSCLC): 2.79 µM; TGI (EKVX NSCLC): 12.7 µM; GI50 (UACC-62 melanoma): 3.1 µM; TGI (UACC-62 melanoma): 14.8 µM; GI50 (MDA-MB-231 breast): 3.54 µM; TGI (MDA-MB-231 breast): 15.9 µM; GI50 (U251 glioblastoma): 5.41 µM; TGI (U251 glioblastoma): 18.6 µM; GI50 (BT-549 breast): 2.58 µM; TGI (BT-549 breast): 7.09 µM; GI50 (M14 melanoma): 3.13 µM; TGI (M14 melanoma): 16.5 µM; GI50 (NCI-H23 lung): 2.3 µM; TGI (NCI-H23 lung): 10.9 µM; GI50 ([…]-0 renal): 3.75 µM; TGI (786-0 renal): 15 µM; GI50 (K-562 leukemia): 2.63 µM; TGI (K-562 leukemia): 12.3 µM; GI50 (OVCAR-5 ovarian): 3.53 µM; TGI (OVCAR-5 ovarian): 15.2 µM; GI50 (OVCAR-3 ovarian): 2.12 µM; TGI (OVCAR-3 ovarian): 13.4 µM; GI50 (NCI-H522 lung): 1.71 µM; TGI (NCI-H522 lung): 8.3 µM; GI50 (SK-MEL-28 melanoma): 5.59 µM; TGI (SK-MEL-28 melanoma): 18.8 µM; GI50 (MOLT-4 leukemia): 1.26 µM; TGI (MOLT-4 leukemia): 2.58 µM; GI50 (SF-268 CNS): 4.58 µM; TGI (SF-268 CNS): 16.9 µM; GI50 (HS 578T breast): 2.24 µM; TGI (HS 578T breast): 9.92 µM; GI50 (MCF7 breast): 3.07 µM; TGI (MCF7 breast): 15.1 µM; GI50 (UO-31 renal): 2.2 µM; TGI (UO-31 renal): 8.13 µM; GI50 (NCI-H226 lung): 4.3 µM; TGI (NCI-H226 lung): 16.9 µM; GI50 (OVCAR-4 ovarian): 5.97 µM; TGI (OVCAR-4 ovarian): 20 µM; GI50 (SK-MEL-2 melanoma): 4.14 µM; TGI (SK-MEL-2 melanoma): 6.87 µM; GI50 (A549 NSCLC): 3.44 µM; TGI (A549 NSCLC): 12.2 µM; GI50 (RXF 393 renal): 1.07 µM; TGI (RXF 393 renal): 4.32 µM; GI50 (SN12C renal): 2.73 µM; TGI (SN12C renal): 12.7 µM; GI50 (COLO 205 colon): 3.73 µM; TGI (COLO 205 colon): 14.5 µM; GI50 (HCT-15 colon): 2.22 µM; TGI (HCT-15 colon): 11.4 µM; GI50 (LOX IMVI melanoma): 4.02 µM; TGI (LOX IMVI melanoma): 13 µM; GI50 (NCI-H322M lung): 5.44 µM; TGI (NCI-H322M lung): 19.6 µM; GI50 (MDA-MB-468 breast): 1.51 µM; TGI (MDA-MB-468 breast): 3.55 µM; GI50 (HOP-62 NSCLC): 3.28 µM; TGI (HOP-62 NSCLC): 13.5 µM
